Earlier results, collected in patent US20150030707A1, “Rhus Coriaria L. Extract For Use In The Treatment Of Hyperhidrosis” (BIOMEDICAL RESEARCH S.R.L., priority 2012, published 2015).

Conditions: in vivo

## botulinum toxin
  duration of efficacy of the injections: 5-6 months
